Source: patent US12077503B2, “Substituted cyclic amides and their use as herbicides” (FMC CORPORATION, priority 2015, dated 2024)

Tests used:
Assay in all cases: Test C preemergence
Format in all cases: in vivo
Conditions in all cases: scale 0 to 100, 0 no effect, 100 complete control
[1] = system: velvetleaf (Abutilon theophrasti)
From the text: (§1) Seeds of plant species selected from blackgrass (Alopecurus myosuroides), ryegrass, Italian (Italian ryegrass, Lolium multiflorum), wheat (winter wheat, Triticum aestivum), Galium (catchweed bedstraw, Galium aparine), corn (Zea mays), crabgrass, large (large crabgrass, Digitaria sanguinalis), foxtail, giant (giant foxtail, Setaria faberii), johnsongrass (Sorghum halepense), lambsquarters (Chenopodium album), morningglory (Ipomoea coccinea), nutsedge, yellow (yellow nutsedge, Cyperus esculentus), pigweed (Amaranthus retroflexus), ragweed (common ragweed, Ambrosia elatior), soybean (Glycine max), barnyardgrass (Echinochloa crus-galli), oilseed rape (Brassica napus), waterhemp (common waterhemp, Amaranthus rudis) and velvetleaf (Abutilon theophrasti) were planted into a blend of loam soil and sand and treated preemergence with test chemicals formulated in a non-phytotoxic solvent mixture which included a surfactant.
(§2) At the same time, plants selected from these crop and weed species and also Kochia (Kochia scoparia), oat, wild (wild oat, Avena fatua), and chickweed (common chickweed, Stellaria media) were planted in pots containing Sunshine Redi-Earth® planting medium comprising spaghnum peat moss, vermiculite, starter nutrients and dolomitic limestone and treated with postemergence applications of test chemicals formulated in the same manner. Plants ranged in height from 2 to 18 cm (1- to 4-leaf stage) for postemergence treatments. Treated plants and controls were maintained in a greenhouse for 13 to 15 d, after which time all species were compared to controls and visually evaluated. Plant response ratings, summarized in Table C, are based on a scale of 0 to 100 where 0 is no effect and 100 is complete control. A dash (-) response means no test result.

[2] = system: pigweed (Amaranthus retroflexus)
From the text: as §1, §2

corn (Zea mays) = system: corn (Zea mays)
From the text: as §1, §2

[3] = system: crabgrass, large (large crabgrass, Digitaria sanguinalis)
From the text: as §1, §2

[4] = system: barnyardgrass (Echinochloa crus-galli)
From the text: as §1, §2

[5] = system: foxtail, giant (giant foxtail, Setaria faberii)
From the text: as §1, §2

[6] = system: waterhemp (common waterhemp, Amaranthus rudis)
From the text: as §1, §2

[7] = system: oilseed rape (Brassica napus)
From the text: as §1, §2

[8] = system: lambsquarters (Chenopodium album)
From the text: as §1, §2

[9] = system: blackgrass (Alopecurus myosuroides)
From the text: as §1, §2

[10] = system: Galium (catchweed bedstraw, Galium aparine)
From the text: as §1, §2

[11] = system: ragweed (common ragweed, Ambrosia elatior)
From the text: as §1, §2

[12] = system: wheat (winter wheat, Triticum aestivum)
From the text: as §1, §2

[13] = system: morningglory (Ipomoea coccinea)
From the text: as §1, §2

[14] = system: nutsedge, yellow (yellow nutsedge, Cyperus esculentus)
From the text: as §1, §2

[15] = system: ryegrass, Italian (Italian ryegrass, Lolium multiflorum)
From the text: as §1, §2

soybean (Glycine max) = system: soybean (Glycine max)
From the text: as §1, §2

SMILES: CN1CC(c2ccc(C(F)(F)F)c(F)c2)C(C(=O)Nc2cccc(F)c2F)C1=O (stereo not drawn) [Compound 396]
- Plant response rating, Velvetleaf ([1]; 62 g ai/ha): 40
- Plant response rating, Velvetleaf ([1]; 125 g ai/ha): 65
- Plant response rating, Velvetleaf ([1]; 250 g ai/ha): 60
- Plant response rating, Pigweed ([2]; 31 g ai/ha): 85
- Plant response rating, Pigweed ([2]; 62 g ai/ha): 80
- Plant response rating, Pigweed ([2]; 125 g ai/ha): 90
- Plant response rating, Pigweed ([2]; 250 g ai/ha): 95
- Plant response rating, Corn (corn (Zea mays); 31 g ai/ha): 0
- Plant response rating, Corn (corn (Zea mays); 62 g ai/ha): 50
- Plant response rating, Corn (corn (Zea mays); 125 g ai/ha): 65
- Plant response rating, Corn (corn (Zea mays); 250 g ai/ha): 75
- Plant response rating, Crabgrass, Large ([3]; 31 g ai/ha): 95
- Plant response rating, Crabgrass, Large ([3]; 62 g ai/ha): 98
- Plant response rating, Crabgrass, Large ([3]; 125 g ai/ha): 98
- Plant response rating, Crabgrass, Large ([3]; 250 g ai/ha): 100
- Plant response rating, Barnyardgrass ([4]; 31 g ai/ha): 85
- Plant response rating, Barnyardgrass ([4]; 62 g ai/ha): 95
- Plant response rating, Barnyardgrass ([4]; 125 g ai/ha): 98
- Plant response rating, Barnyardgrass ([4]; 250 g ai/ha): 98
- Plant response rating, Foxtail, Giant ([5]; 31 g ai/ha): 95
- Plant response rating, Foxtail, Giant ([5]; 62 g ai/ha): 98
- Plant response rating, Foxtail, Giant ([5]; 125 g ai/ha): 98
- Plant response rating, Foxtail, Giant ([5]; 250 g ai/ha): 98
- Plant response rating, Waterhemp ([6]; 62 g ai/ha): 90
- Plant response rating, Waterhemp ([6]; 125 g ai/ha): 95
- Plant response rating, Waterhemp ([6]; 250 g ai/ha): 95
- Plant response rating, Oilseed Rape ([7]; 31 g ai/ha): 30
- Plant response rating, Oilseed Rape ([7]; 62 g ai/ha): 70
- Plant response rating, Oilseed Rape ([7]; 125 g ai/ha): 80
- Plant response rating, Oilseed Rape ([7]; 250 g ai/ha): 85
- Plant response rating, Lambsquarters ([8]; 31 g ai/ha): 50
- Plant response rating, Lambsquarters ([8]; 62 g ai/ha): 75
- Plant response rating, Lambsquarters ([8]; 125 g ai/ha): 70
- Plant response rating, Lambsquarters ([8]; 250 g ai/ha): 98
- Plant response rating, Blackgrass ([9]; 31 g ai/ha): 50
- Plant response rating, Blackgrass ([9]; 62 g ai/ha): 50
- Plant response rating, Blackgrass ([9]; 125 g ai/ha): 80
- Plant response rating, Blackgrass ([9]; 250 g ai/ha): 80
- Plant response rating, Galium ([10]; 31 g ai/ha): 90
- Plant response rating, Galium ([10]; 62 g ai/ha): 90
- Plant response rating, Galium ([10]; 125 g ai/ha): 100
- Plant response rating, Galium ([10]; 250 g ai/ha): 100
- Plant response rating, Ragweed ([11]; 31 g ai/ha): 65
- Plant response rating, Ragweed ([11]; 62 g ai/ha): 80
- Plant response rating, Ragweed ([11]; 125 g ai/ha): 85
- Plant response rating, Ragweed ([11]; 250 g ai/ha): 85
- Plant response rating, Wheat ([12]; 62 g ai/ha): 10
- Plant response rating, Wheat ([12]; 125 g ai/ha): 70
- Plant response rating, Wheat ([12]; 250 g ai/ha): 90
- Plant response rating, Morningglory ([13]; 31 g ai/ha): 10
- Plant response rating, Morningglory ([13]; 62 g ai/ha): 40
- Plant response rating, Morningglory ([13]; 125 g ai/ha): 60
- Plant response rating, Morningglory ([13]; 250 g ai/ha): 70
- Plant response rating, Nutsedge, Yellow ([14]; 31 g ai/ha): 0
- Plant response rating, Nutsedge, Yellow ([14]; 62 g ai/ha): 0
- Plant response rating, Nutsedge, Yellow ([14]; 125 g ai/ha): 30
- Plant response rating, Nutsedge, Yellow ([14]; 250 g ai/ha): 20
- Plant response rating, Ryegrass, Italian ([15]; 62 g ai/ha): 55
- Plant response rating, Ryegrass, Italian ([15]; 125 g ai/ha): 30
- Plant response rating, Ryegrass, Italian ([15]; 250 g ai/ha): 80
- Plant response rating, Soybean (soybean (Glycine max); 62 g ai/ha): 0
- Plant response rating, Soybean (soybean (Glycine max); 125 g ai/ha): 0
- Plant response rating, Soybean (soybean (Glycine max); 250 g ai/ha): 0

SMILES: CN1CC(c2ccc(C(F)(F)F)c(F)c2)C(C(=O)Nc2ccccc2F)C1=O (stereo not drawn) [Compound 399]
- Plant response rating, Velvetleaf ([1]; 62 g ai/ha): 20
- Plant response rating, Velvetleaf ([1]; 125 g ai/ha): 50
- Plant response rating, Velvetleaf ([1]; 250 g ai/ha): 60
- Plant response rating, Pigweed ([2]; 31 g ai/ha): 70
- Plant response rating, Pigweed ([2]; 62 g ai/ha): 75
- Plant response rating, Pigweed ([2]; 125 g ai/ha): 90
- Plant response rating, Pigweed ([2]; 250 g ai/ha): 95
- Plant response rating, Corn (corn (Zea mays); 31 g ai/ha): 35
- Plant response rating, Corn (corn (Zea mays); 62 g ai/ha): 40
- Plant response rating, Corn (corn (Zea mays); 125 g ai/ha): 65
- Plant response rating, Corn (corn (Zea mays); 250 g ai/ha): 60
- Plant response rating, Crabgrass, Large ([3]; 31 g ai/ha): 98
- Plant response rating, Crabgrass, Large ([3]; 62 g ai/ha): 98
- Plant response rating, Crabgrass, Large ([3]; 125 g ai/ha): 100
- Plant response rating, Crabgrass, Large ([3]; 250 g ai/ha): 100
- Plant response rating, Barnyardgrass ([4]; 31 g ai/ha): 95
- Plant response rating, Barnyardgrass ([4]; 62 g ai/ha): 98
- Plant response rating, Barnyardgrass ([4]; 125 g ai/ha): 100
- Plant response rating, Barnyardgrass ([4]; 250 g ai/ha): 98
- Plant response rating, Foxtail, Giant ([5]; 31 g ai/ha): 95
- Plant response rating, Foxtail, Giant ([5]; 62 g ai/ha): 95
- Plant response rating, Foxtail, Giant ([5]; 125 g ai/ha): 98
- Plant response rating, Foxtail, Giant ([5]; 250 g ai/ha): 98
- Plant response rating, Waterhemp ([6]; 62 g ai/ha): 80
- Plant response rating, Waterhemp ([6]; 125 g ai/ha): 90
- Plant response rating, Waterhemp ([6]; 250 g ai/ha): 98
- Plant response rating, Oilseed Rape ([7]; 31 g ai/ha): 35
- Plant response rating, Oilseed Rape ([7]; 62 g ai/ha): 30
- Plant response rating, Oilseed Rape ([7]; 125 g ai/ha): 70
- Plant response rating, Oilseed Rape ([7]; 250 g ai/ha): 85
- Plant response rating, Lambsquarters ([8]; 31 g ai/ha): 90
- Plant response rating, Lambsquarters ([8]; 62 g ai/ha): 85
- Plant response rating, Lambsquarters ([8]; 125 g ai/ha): 85
- Plant response rating, Lambsquarters ([8]; 250 g ai/ha): 98
- Plant response rating, Blackgrass ([9]; 31 g ai/ha): 50
- Plant response rating, Blackgrass ([9]; 62 g ai/ha): 80
- Plant response rating, Blackgrass ([9]; 125 g ai/ha): 70
- Plant response rating, Blackgrass ([9]; 250 g ai/ha): 90
- Plant response rating, Galium ([10]; 31 g ai/ha): 80
- Plant response rating, Galium ([10]; 62 g ai/ha): 85
- Plant response rating, Galium ([10]; 125 g ai/ha): 90
- Plant response rating, Galium ([10]; 250 g ai/ha): 90
- Plant response rating, Ragweed ([11]; 31 g ai/ha): 50
- Plant response rating, Ragweed ([11]; 62 g ai/ha): 50
- Plant response rating, Ragweed ([11]; 125 g ai/ha): 65
- Plant response rating, Ragweed ([11]; 250 g ai/ha): 80
- Plant response rating, Wheat ([12]; 62 g ai/ha): 15
- Plant response rating, Wheat ([12]; 125 g ai/ha): 80
- Plant response rating, Wheat ([12]; 250 g ai/ha): 75
- Plant response rating, Morningglory ([13]; 31 g ai/ha): 40
- Plant response rating, Morningglory ([13]; 62 g ai/ha): 40
- Plant response rating, Morningglory ([13]; 125 g ai/ha): 30
- Plant response rating, Morningglory ([13]; 250 g ai/ha): 55
- Plant response rating, Nutsedge, Yellow ([14]; 31 g ai/ha): 0
- Plant response rating, Nutsedge, Yellow ([14]; 62 g ai/ha): 0
- Plant response rating, Nutsedge, Yellow ([14]; 125 g ai/ha): 0
- Plant response rating, Nutsedge, Yellow ([14]; 250 g ai/ha): 0
- Plant response rating, Ryegrass, Italian ([15]; 62 g ai/ha): 50
- Plant response rating, Ryegrass, Italian ([15]; 125 g ai/ha): 75
- Plant response rating, Ryegrass, Italian ([15]; 250 g ai/ha): 50
- Plant response rating, Soybean (soybean (Glycine max); 62 g ai/ha): 0
- Plant response rating, Soybean (soybean (Glycine max); 125 g ai/ha): 0
- Plant response rating, Soybean (soybean (Glycine max); 250 g ai/ha): 0
